Values joined by “and” are separate entries in the source; they are usually repeats but may differ in a detail not shown here. Equal entries are not always repeated.
Assays:
AtMRP1 = molecular target: T1, AtMRP1 (Arabidopsis thaliana, UniProt Q9C8G9); assay: AtMRP1-dependent uptake by membrane vesicles from pYES3-AtMRP1-transformed DTY168 cells; format: biochemical
T1 construct: S. cerevisiae DTY168 (ycf1 null) vacuolar-enriched membrane vesicles
Protocol: S. cerevisiae strain DTY168 (MATα his6, leu2-3, -112, ura3-52 ycf1::hisG) was transformed with pYES3-AtMRP1 or empty vector lacking the AtMRP1 insert (pYES3) by the LiOAc/PEG method (Giest et al., 1991, Yeast 7:253-263) and selected for uracil prototrophy by plating on AHC medium containing tryptophan (Kim et al., 1994, supra).
For the preparation of membrane vesicles, 15 ml volumes of stationary phase cultures of the transformants were diluted into 1 L of fresh AHC medium and grown to an OD600 nm of about 1.2. Membrane vesicles were purified as described herein and in Kim et al. (1995, supra).
[…] μl reaction volumes containing 3 mM ATP, 3 mM MgSO4, 5 μM gramicidin-D, 10 mM creatine phosphate, 16 units/ml creatine kinase, 50 mM KCl, 1 mg/ml BSA, 400 mM sorbitol, 25 mM Tris-Mes ([…]).
(§1) Cells were grown and vacuolar membrane-enriched vesicles were prepared as described (Kim et al., 1995, J Biol. Chem. 270:2630-2635-). […] Uptake was terminated by the addition of 1 ml ice-cold wash medium (400 mM sorbitol/3 mM Tris-Mes, pH 8.0) and vacuum filtration of the suspension through prewetted Millipore HA cellulose nitrate filters (pore size 0.45 μm). The filters were rinsed twice with wash medium, and the retained radioactivity was determined by liquid scintillation counting. Nonenergized uptake was estimated by the same procedure except that ATP was omitted from the uptake medium.

AtMRP2 = molecular target: T2, AtMRP2 (Arabidopsis thaliana, UniProt Q42093); assay: AtMRP2-dependent uptake by membrane vesicles from pYES3-AtMRP2-transformed DTY168 cells; format: biochemical
T2 construct: S. cerevisiae DTY168 (ycf1 null) vacuolar-enriched membrane vesicles
Protocol: as §1
Membranes from DTY168/pYES3-AtMRP2 cells were incubated for 10 minutes in standard uptake medium containing 61.3 μM [^3 H]DNP-GS after which time 200 mM glucose and 50 units/ml hexokinase (Type F-300 from baker's yeast) were added. […] Control samples were treated identically except that no additions were made after the initial 10 minute incubation period.

[1] = molecular target: T3, YCF1 (vacuolar membrane vesicles purified from DTY165 cells) (Saccharomyces cerevisiae, UniProt P39109); assay: [3H]DNP-GS uptake by vacuolar membrane vesicles purified from DTY165 cells; format: biochemical
T3 construct: endogenous in cells; host or cells: S. cerevisiae DTY165 (wild type YCF1), vacuolar membrane vesicles
Protocol: (§2) For the routine preparation of vacuolar membrane vesicles, 15 ml of stationary phase cultures of DTY165 or DTY167 were diluted into 1-liter volumes of fresh YPD medium, grown for 24 hours at 30° C. to an OD600 nm of approximately 0.8 and collected by centrifugation. After washing with distilled water, the cells were converted to spheroplasts with Zymolyase 20T (ICN) (Kim et al., 1994, supra) and intact vacuoles were isolated by flotation centrifugation of spheroplast lysates on Ficoll 400 step gradients as described by Roberts et al. (1991, Methods. Enzymol. 194:644-661). Both the spheroplast lysis buffer and Ficoll gradients contained 2 mg/ml bovine serum albumin, 1 μg/ml aprotinin, 1 μg/ml leupeptin, 1 μg/ml pepstatin, and 1 mM PMSF to minimize proteolysis. The resulting vacuole fraction was vesiculated in 5 mM MgCl2, 25 mM KCl, 10 mM Tris-Mes (pH 6.9) containing 2 mg/ml bovine serum albumin, 1 μg/ml aprotinin, 1 μg/ml leupeptin, 1 μg/ml pepstatin, and 1 mM PMSF, pelleted by centrifugation at 37,000× g for 25 min, and resuspended in suspension medium (1.1 M glycerol, 2 mM dithiothreitol, 1 mM Tris-EGTA, 2 mg/ml bovine serum albumin, 1 μg/ml aprotinin, 1 μg/ml leupeptin, 1 μg/ml pepstatin, 1 mM PMSF, 5 mM Tris-Mes, pH 7.6) (Kim et al., 1995, J. Biol. Chem. 270:2630-2635).
(§3) Unless otherwise indicated, [^3 H]DNP-GS uptake was measured at 25° C. in 200 μl reaction volumes containing 3 mM ATP, 3 mM MgSO4, 5 μM gramicidin-D, 10 mM creatine phosphate, 16 units/ml creatine kinase, 50 mM KC 1, 1 mg/ml bovine serum albumin, 400 mM sorbitol, 25 mM Tris-Mes (pH 8.0), and 66.2 μM [^3 H]DNP-GS (8.7 mCi/mmol) (Li et al., 1995, supra). […] Uptake was initiated by the addition of vacuolar membrane vesicles (10-15 μg of membrane protein), brief mixing of the samples on a vortex mixer and uptake was then allowed to proceed for 1-60 minutes. Uptake was terminated by the addition of 1 ml of ice-cold wash medium (400 mM sorbitol, 3 mM Tris-Mes, pH 8.0) and vacuum filtration of the suspension through prewetted Millipore HA cellulose nitrate membrane filters (pore diameter, 0.45 μm). The filters were rinsed twice with 1 ml of ice-cold wash medium and air-dried, and radioactivity was determined by liquid scintillation counting in BCS mixture (Amersham Corp.). Nonenergized [^3 H]DNP-GS uptake and extravesicular solution trapped on the filters were enumerated by the same procedure except that ATP and Mg^2 +were omitted from the uptake medium.

[2] = system: vacuolar membrane vesicles purified from DTY167 cells (ycf1Δ mutant); format: biochemical, Saccharomyces cerevisiae
Protocol: as §2, §3

[3] = molecular target: T3, YCF1 (vacuolar membrane vesicles purified from DTY165 cells); assay: biochemical; format: biochemical
Protocol: In experiments involving cadmium transport, dithiothreitol and EGTA were removed from the suspension medium to prevent the attenuation of YCF1-dependent Cd^2+ transport otherwise exerted by these compounds. Vesiculated vacuolar membranes were subjected to three cycles of 50-fold dilution into simplified suspension medium (1.1 M glycerol, 5 mM Tris-Mes, pH 8.0), centrifugation at 100,000× g for 35 minutes and resuspension in the same medium before use.
Singly radiolabeled ^109 Cd.GSn and doubly radio-labeled ^109 Cd[^3 H].GS^n complexes were prepared by sequential gel-filtrationand anion-exchange chromatography of the reaction products generated by incubating 20 mM ^109 CdSO4 (78.4 mCi/mmol) with 40 mM GSH or 40 mM [^3 H]GSH (240 mCi/mmol) in 15 ml 10 mM phosphate buffer (pH 8.0) containing 150 mM KNO3 at 45° C. for 24 hours. For gel-filtration, 2 ml aliquots of the reaction mixture were applied to a column (40×1.5 cm ID) packed with water-equilibrated Sephadex G-1 5, eluted with deionized water and ^109 Cd and/or ^3 H in the fractions was measured by liquid scintillation counting. The fractions encompassed by each of the two ^109 Cd.GSn peaks identified were pooled, lyophilized and redissolved in 4 ml of loading buffer (5 mM Tris-Mes, pH 8.0). For anion-exchange chromatography, 0.5 ml aliquots of the resuspended lyophilizates from gel-filtration chromatography were applied to a Mono-Q HR5/5 column (Pharmacia) equilibrated with the same buffer. Elution was with a linear gradient of NaCl (0.5 ml/minute; 0-500 mM) dissolved in loading buffer. The individual fractions corresponding to the major peaks of ^109 Cd obtained from the Mono-Q column (one each for the peaks resolved by gel-filtration chromatography) were pooled, lyophilized and resuspended in 4 ml deionized water after liquid scintillation counting.
MgATP-energized, uncoupler-insensitive ^109 Cd^2+ uptake by vacuolar membrane vesicles was measured at 25° C. in 200 μl reaction volumes containing 3 mM ATP, 3 mM MgSO4, 5 μM gramicidin-D, 10 mM creatine phosphate, 16 units/ml creatine kinase, 50 mM KCl, 400 mM sorbitol, 25 mM Tris-Mes (pH 8.0) and the indicated concentrations of ^109 CdSO4, GSH or ^109 Cd- and/or ^3 H-labeled purified Cd.GSn complexes as described herein except that the wash media contained 100 μM CdSO4 in addition to sorbitol (400 mM) and Tris-Mes (3 mM, pH 8.0).

[4] = MgATP-dependent, uncoupler-insensitive

T2 sequence (Q42093 whole entry): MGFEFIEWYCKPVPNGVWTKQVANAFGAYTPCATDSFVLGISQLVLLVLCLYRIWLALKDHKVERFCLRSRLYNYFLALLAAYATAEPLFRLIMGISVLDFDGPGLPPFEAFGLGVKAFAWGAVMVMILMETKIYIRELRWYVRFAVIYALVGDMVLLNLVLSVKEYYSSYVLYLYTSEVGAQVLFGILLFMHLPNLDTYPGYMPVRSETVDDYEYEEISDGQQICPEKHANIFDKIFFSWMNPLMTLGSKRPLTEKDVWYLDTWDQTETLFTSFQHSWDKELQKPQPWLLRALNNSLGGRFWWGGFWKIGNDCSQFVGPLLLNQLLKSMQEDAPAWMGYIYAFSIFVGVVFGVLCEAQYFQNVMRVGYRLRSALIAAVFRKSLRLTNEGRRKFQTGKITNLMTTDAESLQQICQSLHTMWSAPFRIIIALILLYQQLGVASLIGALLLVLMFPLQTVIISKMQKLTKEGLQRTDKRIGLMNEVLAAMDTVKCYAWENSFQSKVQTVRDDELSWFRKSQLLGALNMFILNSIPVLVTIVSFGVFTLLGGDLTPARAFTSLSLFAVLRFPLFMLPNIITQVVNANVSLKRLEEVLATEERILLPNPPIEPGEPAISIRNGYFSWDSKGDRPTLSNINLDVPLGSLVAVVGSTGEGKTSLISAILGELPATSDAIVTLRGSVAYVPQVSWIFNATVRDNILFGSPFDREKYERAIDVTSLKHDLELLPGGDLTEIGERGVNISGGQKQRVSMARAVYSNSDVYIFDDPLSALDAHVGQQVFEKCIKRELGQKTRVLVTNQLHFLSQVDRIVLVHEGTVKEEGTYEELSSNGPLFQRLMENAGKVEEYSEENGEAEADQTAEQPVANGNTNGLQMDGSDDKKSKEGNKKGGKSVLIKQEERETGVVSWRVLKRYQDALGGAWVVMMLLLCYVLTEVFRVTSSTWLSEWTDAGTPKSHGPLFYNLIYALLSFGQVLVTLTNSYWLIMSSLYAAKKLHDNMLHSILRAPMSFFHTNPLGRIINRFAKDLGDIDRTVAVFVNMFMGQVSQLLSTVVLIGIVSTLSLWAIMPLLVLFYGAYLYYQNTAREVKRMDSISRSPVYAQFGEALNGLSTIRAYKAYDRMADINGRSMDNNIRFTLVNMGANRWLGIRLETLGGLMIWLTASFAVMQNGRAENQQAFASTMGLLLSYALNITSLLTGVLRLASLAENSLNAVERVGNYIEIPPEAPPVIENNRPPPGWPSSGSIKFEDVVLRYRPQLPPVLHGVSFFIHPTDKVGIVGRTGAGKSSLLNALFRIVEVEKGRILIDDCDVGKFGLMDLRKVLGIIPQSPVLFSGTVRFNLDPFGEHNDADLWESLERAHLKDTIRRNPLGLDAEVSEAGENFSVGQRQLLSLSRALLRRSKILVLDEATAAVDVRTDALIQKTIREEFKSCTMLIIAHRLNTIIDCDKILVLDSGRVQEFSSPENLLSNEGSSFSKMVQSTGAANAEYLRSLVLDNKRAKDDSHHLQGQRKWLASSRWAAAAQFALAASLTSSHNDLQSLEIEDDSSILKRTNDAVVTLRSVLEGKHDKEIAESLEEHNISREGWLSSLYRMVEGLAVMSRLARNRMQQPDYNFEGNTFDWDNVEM
T3 sequence (P39109 whole entry): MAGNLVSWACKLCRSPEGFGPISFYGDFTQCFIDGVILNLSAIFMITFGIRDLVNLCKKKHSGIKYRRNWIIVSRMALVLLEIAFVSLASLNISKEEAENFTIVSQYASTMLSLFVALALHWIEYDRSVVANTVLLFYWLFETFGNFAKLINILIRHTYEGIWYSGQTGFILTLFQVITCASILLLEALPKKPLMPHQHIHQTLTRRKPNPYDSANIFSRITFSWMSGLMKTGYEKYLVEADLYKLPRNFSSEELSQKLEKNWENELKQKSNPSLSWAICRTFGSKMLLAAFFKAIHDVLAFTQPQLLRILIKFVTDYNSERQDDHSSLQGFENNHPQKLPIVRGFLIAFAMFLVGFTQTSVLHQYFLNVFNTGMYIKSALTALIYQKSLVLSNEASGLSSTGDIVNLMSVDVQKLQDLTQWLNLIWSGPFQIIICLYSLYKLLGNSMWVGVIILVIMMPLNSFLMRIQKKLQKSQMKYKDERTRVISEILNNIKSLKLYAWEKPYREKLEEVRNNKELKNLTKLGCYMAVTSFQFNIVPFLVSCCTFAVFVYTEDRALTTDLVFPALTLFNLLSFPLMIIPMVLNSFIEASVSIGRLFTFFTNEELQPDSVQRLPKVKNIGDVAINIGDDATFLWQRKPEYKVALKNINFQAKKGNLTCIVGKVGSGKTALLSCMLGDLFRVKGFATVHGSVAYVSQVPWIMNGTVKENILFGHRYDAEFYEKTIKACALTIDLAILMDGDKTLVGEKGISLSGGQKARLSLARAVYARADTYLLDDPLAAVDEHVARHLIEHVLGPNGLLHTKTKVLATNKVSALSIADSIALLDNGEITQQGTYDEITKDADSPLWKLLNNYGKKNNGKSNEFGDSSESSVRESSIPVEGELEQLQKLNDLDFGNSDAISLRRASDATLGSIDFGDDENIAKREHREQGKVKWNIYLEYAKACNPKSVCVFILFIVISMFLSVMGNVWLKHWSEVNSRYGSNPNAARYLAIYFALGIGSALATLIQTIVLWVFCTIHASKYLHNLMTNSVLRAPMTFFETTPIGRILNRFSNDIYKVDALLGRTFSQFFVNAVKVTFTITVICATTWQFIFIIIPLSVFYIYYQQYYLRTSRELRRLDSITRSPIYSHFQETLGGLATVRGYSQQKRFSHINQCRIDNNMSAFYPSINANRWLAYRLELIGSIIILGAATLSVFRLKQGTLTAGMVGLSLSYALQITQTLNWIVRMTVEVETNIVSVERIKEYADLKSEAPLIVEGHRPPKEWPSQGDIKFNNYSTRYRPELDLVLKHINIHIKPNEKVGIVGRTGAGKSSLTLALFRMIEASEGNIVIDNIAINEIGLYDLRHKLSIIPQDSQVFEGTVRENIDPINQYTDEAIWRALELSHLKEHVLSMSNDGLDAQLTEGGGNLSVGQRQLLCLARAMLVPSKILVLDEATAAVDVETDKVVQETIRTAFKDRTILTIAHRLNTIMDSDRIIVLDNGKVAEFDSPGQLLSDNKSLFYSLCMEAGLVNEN
T1 sequence (Q9C8G9 whole entry): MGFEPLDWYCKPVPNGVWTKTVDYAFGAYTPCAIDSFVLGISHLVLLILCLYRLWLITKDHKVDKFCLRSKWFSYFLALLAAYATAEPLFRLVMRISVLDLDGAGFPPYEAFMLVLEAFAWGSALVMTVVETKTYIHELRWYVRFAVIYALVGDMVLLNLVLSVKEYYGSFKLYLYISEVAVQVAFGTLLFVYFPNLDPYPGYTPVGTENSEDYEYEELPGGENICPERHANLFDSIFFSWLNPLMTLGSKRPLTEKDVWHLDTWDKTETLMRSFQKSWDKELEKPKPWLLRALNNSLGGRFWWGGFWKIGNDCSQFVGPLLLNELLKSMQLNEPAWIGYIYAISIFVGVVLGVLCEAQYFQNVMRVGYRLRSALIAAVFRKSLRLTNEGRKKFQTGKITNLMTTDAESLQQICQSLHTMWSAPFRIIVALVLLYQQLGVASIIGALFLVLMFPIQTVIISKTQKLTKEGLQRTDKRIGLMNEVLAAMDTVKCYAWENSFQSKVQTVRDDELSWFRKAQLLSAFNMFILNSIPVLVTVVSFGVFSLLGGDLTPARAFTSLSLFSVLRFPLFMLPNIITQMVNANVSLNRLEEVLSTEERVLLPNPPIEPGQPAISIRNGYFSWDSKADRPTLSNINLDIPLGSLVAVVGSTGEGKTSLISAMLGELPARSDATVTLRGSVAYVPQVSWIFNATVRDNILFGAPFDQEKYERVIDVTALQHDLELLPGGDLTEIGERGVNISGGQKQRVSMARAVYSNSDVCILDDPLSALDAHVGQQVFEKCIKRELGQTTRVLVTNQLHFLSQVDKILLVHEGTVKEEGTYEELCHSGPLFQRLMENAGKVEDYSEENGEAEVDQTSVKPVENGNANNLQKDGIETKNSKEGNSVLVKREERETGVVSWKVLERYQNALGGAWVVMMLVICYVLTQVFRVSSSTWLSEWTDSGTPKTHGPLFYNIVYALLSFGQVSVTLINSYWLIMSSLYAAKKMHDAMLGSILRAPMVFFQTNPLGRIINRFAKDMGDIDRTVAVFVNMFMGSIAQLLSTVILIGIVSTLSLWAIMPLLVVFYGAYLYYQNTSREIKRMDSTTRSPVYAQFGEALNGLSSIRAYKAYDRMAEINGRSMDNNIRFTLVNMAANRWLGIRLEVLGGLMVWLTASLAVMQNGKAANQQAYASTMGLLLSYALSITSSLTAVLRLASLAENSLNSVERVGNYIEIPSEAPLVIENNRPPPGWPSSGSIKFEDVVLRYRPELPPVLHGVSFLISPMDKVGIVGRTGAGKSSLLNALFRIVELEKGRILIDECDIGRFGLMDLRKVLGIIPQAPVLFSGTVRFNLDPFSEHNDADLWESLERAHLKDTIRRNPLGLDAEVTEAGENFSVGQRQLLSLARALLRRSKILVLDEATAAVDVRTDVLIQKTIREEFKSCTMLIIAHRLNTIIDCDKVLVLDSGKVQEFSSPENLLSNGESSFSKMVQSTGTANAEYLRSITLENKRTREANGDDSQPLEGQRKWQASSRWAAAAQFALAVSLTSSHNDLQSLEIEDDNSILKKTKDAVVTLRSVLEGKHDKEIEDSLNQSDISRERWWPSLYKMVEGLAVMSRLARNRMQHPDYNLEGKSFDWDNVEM

Row | SMILES | Km for AtMRP1-dependent uptake (AtMRP1; [4]) | Km (AtMRP2; [4]) | Vmax for AtMRP2-dependent uptake (AtMRP2; [4]) [nmol/mg/10 min] | MgATP-dependent, uncoupler-insensitive uptake of unconjugated precursor detectable (AtMRP1) | MgATP-dependent, uncoupler-insensitive uptake of unconjugated precursor detectable (AtMRP2) | MgATP-dependent, uncoupler-insensitive DNP-GS uptake plus compound [1] [nmol/mg/10 minutes] | MgATP-dependent, uncoupler-insensitive DNP-GS uptake as percentage of control ([1]; dty165 vacuolar membrane vesicles, 10 min) | MgATP-dependent, uncoupler-insensitive DNP-GS uptake plus compound [2] [nmol/mg/10 minutes] | MgATP-dependent, uncoupler-insensitive DNP-GS uptake as percentage of control ([2]; dty167 vacuolar membrane vesicles, 10 min) | t1/2 of GSH stimulation of Cd2+ uptake [3] [min]
1 | C=CC1=C(C)C(Cc2[nH]c(C3c4[nH]c(Cc5[nH]c(C=O)c(C)c5CCOC(=O)CC(=O)O)c(C)c4C(=O)C3C(=O)O)c(CCC(=O)O)c2C)NC1=O (centres unmarked) [Bn-NCC-1] | Linear | 15.2 µM and 15 µM | 63.1 ± 2.5 | – | – | – | – | – | – | –
2 | OC[C@H]1O[C@@H](Oc2cc3c(O)cc(O)cc3[o+]c2-c2ccc(O)c(O)c2)[C@H](O)[C@@H](O)[C@@H]1O [C3G, cyanidin-3-glucoside] | – | – | – | In no case | In no case | – | – | – | – | –
3 | O=[N+]([O-])c1ccc(Cl)c([N+](=O)[O-])c1 [DNP] | – | – | – | In no case | In no case | – | – | – | – | –
4 | N[C@@H](CCC(=O)N[C@@H](CS)C(=O)NCC(=O)O)C(=O)O [GSH, glutathione] | – | – | – | In no case | In no case | 50.6 ± 2.3 | 105.6 | 4.6 ± 1.1 | 70.8 | < 5

From patent US6166290A, “Glutathione-S-conjugate transport in plants” (The Trustees of the University of Pennsylvania, priority 1997, dated 2000)
